Among the data in patent US20080164212A1, “Method for Determining and Controlling the Formation of Deposits In a Water System” (ASHLAND LICENSING AND INTELLECTUAL PROPERTY LLC., priority 2005, published 2008) are Total germ count values, retold here.

The test has as its system total germ count (aerobic bacteria) in wire water of a newsprint paper machine. As to the kind of experiment: Total germ count by plating on agar, wire water in a flow cell system dosed daily with biocide. In kind it is cell-based. Particulars: 5 days in a flow cell, 48° C. How it is done:
Furthermore, conventional platings on agar (Plate Count Agar from Merck, Darmstadt, Germany) were also carried out to obtain an indication of the total germ counts.
The aim was to determine the correlation between the results of a conventional biocide screening and the real formation of slime deposits. The investigations were carried on the wire water of a newsprint paper machine using 100% TMP. With a biocide screening, it was possible to determine the optimum biocide concentration for the achievement of a germ count reduction by 10^2 within 30 minutes. In order to follow slime formation at this biocide concentration, a flow cell system with suspended coupons was employed.
The wire water, which was also used for the biocide screening, was poured into the storage bottles of this system and enriched with a number of clots of slime from the wire water channel. The investigation was carried out at system temperature (in this case 48° C.). During the test period of 5 days, biocide was dosed daily. After exposure, the coupons were immediately selectively dyed in order to distinguish between live and dead organisms and then analysed with CLSM. Samples were plated on an agar medium (aerobically) at the same time.

Each structure is given as a SMILES string.

In turn, `N#CC(Br)(Br)C(N)=O` [DBNPA, dibromonitrile propionamide] returned a Total germ count (DBNPA 40 ppm product) of under 1000 cfa/ml. `CC(=O)OO` [peracetic acid]: the Total germ count (peracetic acid 60 ppm product) is listed as under 1000 cfu/ml.
